Laboratory results as given in ChEMBL document CHEMBL1201862, “PubChem BioAssay data set” (2004).
Activity calls are given as the source filed them.

What was measured:
[1] = biological target: Mitogen-activated protein kinase 10 (Homo sapiens, UniProt P53779); test: Dose response biochemical screening assay for inhibitors of c-Jun N-Terminal Kinase 3 (JNK3). [Related pubchem assays: 746 ]
[2] = Late stage assay provider results from the probe development effort to identify selective inhibitors of heat shock protein 90 (HSP90): Absorbance-based cell proliferation assay in SKBR3 cells.; assay type: functional; conditions: SK-BR-3
[3] = Late stage assay provider results from the probe development effort to identify selective inhibitors of heat shock protein 90 (HSP90): Absorbance-based cell proliferation assay in MCF7 cells.; assay type: functional
[4] = biological target: Bifunctional protein GlmU (Mycobacterium tuberculosis, UniProt P9WMN3); test: Inhibitors of Mycobacterial Glucosamine-1-phosphate acetyl transferase (GlmU). Secondary screen.; parameters: species or system Mycobacterium tuberculosis H37Rv
Chain of Bifunctional protein GlmU (P9WMN3 whole entry): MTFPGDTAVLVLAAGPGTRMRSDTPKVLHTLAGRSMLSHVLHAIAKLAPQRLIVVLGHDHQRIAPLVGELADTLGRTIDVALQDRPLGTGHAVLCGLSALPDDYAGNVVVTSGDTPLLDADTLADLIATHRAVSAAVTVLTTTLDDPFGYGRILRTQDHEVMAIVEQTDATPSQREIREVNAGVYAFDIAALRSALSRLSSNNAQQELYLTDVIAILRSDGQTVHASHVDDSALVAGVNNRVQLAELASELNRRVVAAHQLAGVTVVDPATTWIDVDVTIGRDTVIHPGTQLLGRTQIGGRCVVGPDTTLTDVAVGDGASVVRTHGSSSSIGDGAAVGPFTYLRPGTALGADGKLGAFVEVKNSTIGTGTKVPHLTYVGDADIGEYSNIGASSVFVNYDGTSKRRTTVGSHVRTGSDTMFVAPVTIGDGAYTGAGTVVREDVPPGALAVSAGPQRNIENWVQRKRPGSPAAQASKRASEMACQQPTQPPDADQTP

[5] = NIH:OVCAR-3 ovarian cancer cell cytotoxicity, dose response, PAX8 inhibitor project, plate reader, dry powder samples (AID 743044); assay type: functional, cell-based
[6] = cytotoxicity in OVCAR8 ovarian cancer cells, dose response, PAX8 project, cell-based, plate reader, dry powder samples (AID 743197); assay type: functional; conditions: OVCAR-8
[7] = cytotoxicity dependent on PAX8, dose response, cell-based, plate reader, dry powder (AID 743049); assay type: functional
[8] = cytotoxicity in COV362 ovarian cancer cells, dose response, cytotoxicity control for PAX8 inhibitor project, cell-based, plate reader, dry powder, SA12 (AID 743144); assay type: functional
[9] = cytotoxicity in OV-90 ovarian cancer cells, dose response, PAX8 inhibitor project, cell-based, plate reader, dry powder, SA8 (AID 743149); assay type: functional
[10] = inhibitors of PGC1a acetylation in cells, dose response, cell-based, cherry-picked samples (AID 720514); assay type: functional;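 further: potency may reflect raised or lowered acetylation signal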
[11] = biological target: Paired box protein Pax-8 (Homo sapiens, UniProt Q06710); test: inhibitors of PAX8-driven TPO luciferase reporter, dose response, RMG-I cells, cherry-pick (AID 687027); assay type: functional, cell-based;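 further: luciferase reporter driven by Pax8 target thyroperoxidase promoter measured by SteadyGlo luminescence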
Chain of Paired box protein Pax-8 (Q06710 whole entry): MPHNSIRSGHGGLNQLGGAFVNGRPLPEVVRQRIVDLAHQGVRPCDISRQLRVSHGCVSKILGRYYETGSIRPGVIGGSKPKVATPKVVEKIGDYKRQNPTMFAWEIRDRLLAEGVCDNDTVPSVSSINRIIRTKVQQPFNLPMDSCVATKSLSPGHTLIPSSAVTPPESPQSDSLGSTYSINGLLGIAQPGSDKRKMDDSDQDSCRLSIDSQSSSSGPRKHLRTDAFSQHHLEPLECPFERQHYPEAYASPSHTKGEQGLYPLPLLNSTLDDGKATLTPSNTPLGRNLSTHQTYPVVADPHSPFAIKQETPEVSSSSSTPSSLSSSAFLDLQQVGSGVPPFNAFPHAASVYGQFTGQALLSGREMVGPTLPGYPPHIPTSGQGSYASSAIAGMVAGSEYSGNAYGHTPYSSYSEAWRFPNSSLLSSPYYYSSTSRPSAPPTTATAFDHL

[12] = IGROV1 ovarian cancer cell cytotoxicity, dose response, PAX8 inhibitor project, plate reader, dry powder samples (AID 743043); assay type: functional, cell-based; conditions: IGROV-1
[13] = cytotoxicity in OVCAR4 cells, dose response, cytotoxicity control for PAX8 inhibitor project, cell-based, plate reader, dry powder, SA11 (AID 743150); assay type: functional; conditions: OVCAR-4
[14] = non-specific cell cytotoxicity, dose response, cytotoxicity control for PAX8 inhibitor project, plate reader, dry powder samples (AID 743021); assay type: functional, cell-based
[15] = cytotoxicity in COV434 cells, dose response, cytotoxicity control for PAX8 inhibitor project, cell-based, plate reader, dry powder, SA7 (AID 743145); assay type: functional
[16] = A2780 ovarian cancer cell cytotoxicity, dose response, cytotoxicity control, plate reader, dry powder samples (AID 743046); assay type: functional, cell-based
[17] = IOSE-T80 ovarian epithelial cell cytotoxicity, dose response, cytotoxicity control for PAX8 inhibitor project, plate reader, dry powder samples (AID 743045); assay type: functional, cell-based
[18] = biological target: Sphingosine 1-phosphate receptor 2 (Homo sapiens, UniProt O95136); test: Dose Response Cell Based Assay for Antagonists of the S1P2 Receptor. [Related pubchem assays: 856, 736 ]; assay type: functional
Chain of Sphingosine 1-phosphate receptor 2 (O95136 whole entry): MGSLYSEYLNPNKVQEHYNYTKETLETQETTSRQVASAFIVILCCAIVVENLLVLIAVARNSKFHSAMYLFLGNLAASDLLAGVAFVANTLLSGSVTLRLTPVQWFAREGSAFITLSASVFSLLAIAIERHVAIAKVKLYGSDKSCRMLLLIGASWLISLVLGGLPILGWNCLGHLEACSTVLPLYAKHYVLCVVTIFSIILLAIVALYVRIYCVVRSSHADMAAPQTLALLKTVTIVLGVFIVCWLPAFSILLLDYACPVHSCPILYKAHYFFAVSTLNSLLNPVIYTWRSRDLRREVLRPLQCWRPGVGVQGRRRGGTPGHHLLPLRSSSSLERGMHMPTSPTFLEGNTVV

[19] = biological target: Potassium channel subfamily K member 9 (Homo sapiens, UniProt Q9NPC2); test: TASK3 (KCNK9) channel inhibitors, thallium flux, SAR follow-up, selectivity assay for TASK1 inhibitor project, cell-based, FluxOR thallium flux, concentration-response (AID 652211); assay type: functional;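 further: potency is for inhibitors of the channel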
Chain of Potassium channel subfamily K member 9 (Q9NPC2 whole entry): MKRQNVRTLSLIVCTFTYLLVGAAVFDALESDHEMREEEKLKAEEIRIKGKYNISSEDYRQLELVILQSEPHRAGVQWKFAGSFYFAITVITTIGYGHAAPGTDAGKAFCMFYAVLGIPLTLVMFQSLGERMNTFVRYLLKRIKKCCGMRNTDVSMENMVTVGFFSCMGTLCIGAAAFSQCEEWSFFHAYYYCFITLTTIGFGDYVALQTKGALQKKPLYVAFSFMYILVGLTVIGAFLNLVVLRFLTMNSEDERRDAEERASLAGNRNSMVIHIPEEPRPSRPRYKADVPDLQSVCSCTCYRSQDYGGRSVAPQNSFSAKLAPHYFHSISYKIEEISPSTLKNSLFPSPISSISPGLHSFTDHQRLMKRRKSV

[20] = biological target: Potassium channel subfamily K member 3 (Homo sapiens, UniProt O14649); test: TASK1 (KCNK3) potassium channel inhibitors, SAR follow-up, CHO cells, FluxOR thallium flux (AID 652212); assay type: functional
Chain of Potassium channel subfamily K member 3 (O14649 whole entry, the tested form may be a part): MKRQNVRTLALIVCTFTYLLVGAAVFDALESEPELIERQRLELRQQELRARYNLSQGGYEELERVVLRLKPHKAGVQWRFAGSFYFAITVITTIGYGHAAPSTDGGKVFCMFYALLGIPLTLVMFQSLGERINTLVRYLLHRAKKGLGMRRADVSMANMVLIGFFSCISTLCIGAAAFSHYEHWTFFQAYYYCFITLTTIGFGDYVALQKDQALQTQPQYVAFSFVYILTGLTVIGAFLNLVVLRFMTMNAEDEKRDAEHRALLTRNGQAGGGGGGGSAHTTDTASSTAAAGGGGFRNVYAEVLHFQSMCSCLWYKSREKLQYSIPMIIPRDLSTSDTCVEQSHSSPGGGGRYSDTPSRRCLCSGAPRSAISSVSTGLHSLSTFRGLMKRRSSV

[21] = biological target: Photoreceptor-specific nuclear receptor (Homo sapiens, UniProt Q9Y5X4); assay type: functional, cell-based;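 further: CHO-S cells with Gal4-NCOR and VP16-NR2E3 two-hybrid luciferase reporter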
Chain of Photoreceptor-specific nuclear receptor (Q9Y5X4 whole entry, the tested form may be a part): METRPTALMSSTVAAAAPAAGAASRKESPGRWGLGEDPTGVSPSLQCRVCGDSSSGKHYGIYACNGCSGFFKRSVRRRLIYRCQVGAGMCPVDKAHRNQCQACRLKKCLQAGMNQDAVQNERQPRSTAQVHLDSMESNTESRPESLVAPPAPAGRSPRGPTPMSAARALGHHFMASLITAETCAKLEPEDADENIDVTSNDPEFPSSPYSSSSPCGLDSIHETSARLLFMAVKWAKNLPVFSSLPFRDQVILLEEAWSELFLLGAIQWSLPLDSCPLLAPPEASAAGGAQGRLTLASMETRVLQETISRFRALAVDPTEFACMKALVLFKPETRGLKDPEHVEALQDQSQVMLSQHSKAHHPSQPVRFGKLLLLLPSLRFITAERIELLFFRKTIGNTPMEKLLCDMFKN

[22] = biological target: T1, Corticotropin-releasing factor receptor 2/Corticotropin-releasing factor-binding protein (Homo sapiens, UniProt P24387+Q13324); test: activators of CRF receptor 2 with binding protein – uHTS hits, confirmation (AID 602473); assay type: functional; conditions: read-out: EC50_Mean
T1 sequence (Q13324 whole entry): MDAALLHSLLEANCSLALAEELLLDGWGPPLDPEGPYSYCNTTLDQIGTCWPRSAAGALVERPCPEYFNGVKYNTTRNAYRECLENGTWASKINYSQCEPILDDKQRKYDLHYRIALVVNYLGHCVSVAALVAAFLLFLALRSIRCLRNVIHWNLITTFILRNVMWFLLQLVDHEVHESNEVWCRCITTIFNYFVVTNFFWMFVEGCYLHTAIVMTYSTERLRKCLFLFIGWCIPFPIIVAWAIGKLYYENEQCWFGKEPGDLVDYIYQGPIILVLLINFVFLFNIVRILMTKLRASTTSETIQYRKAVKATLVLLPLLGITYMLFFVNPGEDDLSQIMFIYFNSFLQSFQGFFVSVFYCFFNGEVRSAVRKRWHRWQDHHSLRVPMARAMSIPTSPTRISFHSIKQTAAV
T1 sequence (P24387 whole entry): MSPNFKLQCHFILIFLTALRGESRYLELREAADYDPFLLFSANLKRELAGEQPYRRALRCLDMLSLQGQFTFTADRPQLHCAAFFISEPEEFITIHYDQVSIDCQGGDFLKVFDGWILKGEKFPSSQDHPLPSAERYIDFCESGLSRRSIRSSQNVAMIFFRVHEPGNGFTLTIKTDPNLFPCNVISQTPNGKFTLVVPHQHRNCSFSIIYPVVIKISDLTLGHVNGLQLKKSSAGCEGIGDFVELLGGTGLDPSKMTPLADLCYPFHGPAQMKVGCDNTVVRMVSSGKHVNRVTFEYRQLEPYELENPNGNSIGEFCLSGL

[23] = CRF-BP/CRF-R2 complex antagonists, dose response, cell-based, uHTS hits, 384-well (AID 651639); assay type: functional, Homo sapiens; conditions: read-out: IC50_Mean
[24] = biological target: Caspase-6 (Homo sapiens, UniProt P55212); test: human caspase-6 inhibitors, dose response, biochemical, VEID-R110 fluorescence, cherry-pick (AID 720632)
Chain of Caspase-6 (P55212 24-179 limits assumed): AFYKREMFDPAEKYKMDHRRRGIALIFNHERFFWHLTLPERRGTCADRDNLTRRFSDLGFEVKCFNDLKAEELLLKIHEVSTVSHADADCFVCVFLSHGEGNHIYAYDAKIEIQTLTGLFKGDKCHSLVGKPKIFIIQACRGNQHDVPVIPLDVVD
Chain of Caspase-6 (P55212 194-293 limits assumed): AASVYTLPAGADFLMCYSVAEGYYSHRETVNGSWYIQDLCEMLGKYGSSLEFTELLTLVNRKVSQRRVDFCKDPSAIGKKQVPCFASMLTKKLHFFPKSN

[25] = biological target: T1, Corticotropin-releasing factor receptor 2/Corticotropin-releasing factor-binding protein; test: Dose Response confirmation of uHTS hits for small molecule antagonists of the CRF-binding protein and CRF-R2 receptor complex.; assay type: functional; conditions: read-out: IC50_Mean
[26] = cells; conditions: HEK293
[27] = A549 cell cytotoxicity, dose response, cytotoxicity control, plate reader, dry powder, set 6 (AID 743312); assay type: functional, cell-based
[28] = HepG2 cell cytotoxicity, dose response, cytotoxicity control, plate reader, dry powder, set 6 (AID 743311); assay type: functional, cell-based
[29] = system: HeLa; test: HeLa cell cytotoxicity, dose response, cytotoxicity control, ATP luminescence, cherry-pick samples (AID 687004); assay type: functional, cell-based; conditions: Homo sapiens
[30] = TRPM1 promoter luciferase reporter signal decrease, dose response, MITF inhibitor project, cell-based, SK-MEL-5, dry powder, set 8 (AID 624430); assay type: functional
[31] = MITF Orthogonal Assay: SK-MEL-5 CTG Assay Measured in Cell-Based System Using Plate Reader - 2084-02_Inhibitor_Dose_DryPowder_Activity_Set7.; assay type: functional
[32] = MITF: Counter assay: A375 proliferation Measured in Cell-Based System Using Plate Reader - 2084-03_Inhibitor_Dose_DryPowder_Activity_Set8.; assay type: functional; conditions: A-375
[33] = biological target: E3 ubiquitin-protein ligase Mdm2 (Homo sapiens, UniProt Q00987); test: enhancers of MDM2-luciferase reporter signal, concentration-effect titration, project on inhibitors of MDM2 ubiquitin ligase, cellular assay, luminescent readout, 384-well plate format (AID 1394); assay type: functional;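 further: MDM2 E3 inhibitors raise luminescence so EC50 is for signal enhancement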
Chain of E3 ubiquitin-protein ligase Mdm2 (Q00987 whole entry): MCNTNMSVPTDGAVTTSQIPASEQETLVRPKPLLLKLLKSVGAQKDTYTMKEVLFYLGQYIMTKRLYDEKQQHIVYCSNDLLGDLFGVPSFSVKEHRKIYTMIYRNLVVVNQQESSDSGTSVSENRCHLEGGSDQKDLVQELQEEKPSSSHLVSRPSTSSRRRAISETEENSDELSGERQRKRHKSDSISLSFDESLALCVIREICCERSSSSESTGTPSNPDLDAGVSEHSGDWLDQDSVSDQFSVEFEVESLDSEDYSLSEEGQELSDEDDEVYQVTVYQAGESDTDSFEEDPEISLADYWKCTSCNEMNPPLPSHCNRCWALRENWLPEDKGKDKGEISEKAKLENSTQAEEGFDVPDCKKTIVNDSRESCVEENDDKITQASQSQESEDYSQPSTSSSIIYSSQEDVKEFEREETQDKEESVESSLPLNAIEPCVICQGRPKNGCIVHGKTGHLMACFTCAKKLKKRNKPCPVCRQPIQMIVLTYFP

[34] = biological target: T2, High affinity choline transporter 1 (Homo sapiens, UniProt Q9GZV3); test: CHT inhibitors, dose response, cell-based, 5-point CRC, membrane potential dye (AID 504840); assay type: functional
T2 sequence (Q9GZV3 whole entry): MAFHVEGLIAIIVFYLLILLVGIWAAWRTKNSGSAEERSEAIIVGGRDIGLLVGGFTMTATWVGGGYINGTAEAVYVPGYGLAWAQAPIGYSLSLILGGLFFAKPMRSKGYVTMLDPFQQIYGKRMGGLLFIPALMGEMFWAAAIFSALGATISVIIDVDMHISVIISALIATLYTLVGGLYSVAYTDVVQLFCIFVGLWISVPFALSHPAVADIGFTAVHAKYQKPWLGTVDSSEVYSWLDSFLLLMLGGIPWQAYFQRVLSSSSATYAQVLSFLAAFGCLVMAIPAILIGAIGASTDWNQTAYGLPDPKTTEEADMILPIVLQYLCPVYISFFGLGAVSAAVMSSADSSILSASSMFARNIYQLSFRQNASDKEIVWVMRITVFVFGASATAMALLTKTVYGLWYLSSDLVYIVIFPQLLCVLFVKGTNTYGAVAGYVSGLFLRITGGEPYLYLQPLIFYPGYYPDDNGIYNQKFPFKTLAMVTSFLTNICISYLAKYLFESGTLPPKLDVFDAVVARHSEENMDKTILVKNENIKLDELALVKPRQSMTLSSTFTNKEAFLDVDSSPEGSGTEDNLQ

[35] = biological target: T2, High affinity choline transporter 1; test: CHT inhibitors, dose response, cell-based, 10-point CRC, membrane potential dye (AID 588401); assay type: functional;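 further: membrane potential dye fluorescence of choline-evoked depolarization via CHT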

Chain of Mitogen-activated protein kinase 10 (P53779 whole entry): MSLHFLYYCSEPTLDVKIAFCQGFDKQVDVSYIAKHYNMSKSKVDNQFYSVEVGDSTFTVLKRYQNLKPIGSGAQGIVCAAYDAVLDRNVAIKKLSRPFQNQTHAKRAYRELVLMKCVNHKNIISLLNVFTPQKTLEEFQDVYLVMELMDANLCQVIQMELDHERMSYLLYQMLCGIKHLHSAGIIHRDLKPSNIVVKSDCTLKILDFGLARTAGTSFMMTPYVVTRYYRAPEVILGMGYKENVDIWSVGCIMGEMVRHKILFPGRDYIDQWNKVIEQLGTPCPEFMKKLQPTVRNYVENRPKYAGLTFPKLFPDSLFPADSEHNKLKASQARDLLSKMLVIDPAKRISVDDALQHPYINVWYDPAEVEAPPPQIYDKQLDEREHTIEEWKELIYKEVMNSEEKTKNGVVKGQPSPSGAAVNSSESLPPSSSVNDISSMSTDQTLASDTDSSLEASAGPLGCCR

## CC(=O)Oc1ccc(C(=O)Nc2nccs2)cc1
[1]
  IC50: > 31 µM (not active)

## O=C1OC(=O)/C(=C\NCCC2=CCCCC2)C=C1Br
[2]
  IC50: 8 µM (active)
[3]
  IC50: 3 µM (active)

## Cc1nc(Nc2ccc(C(=O)O)cc2)nc(Nc2ccc(C(=O)O)cc2)c1[N+](=O)[O-]
[4]
  IC50: 211 µM (active)

## CN(C[C@H]1N[C@@H](CO)[C@@H]1c1ccc(C2=CCCC2)cc1)C(=O)c1cccc(F)c1
[5]
  AC50: 4.55 µM (active)
[6]
  AC50: 3.4 µM (active)
[7]
  AC50: 3.86 µM (active)
[8]
  AC50: 3.98 µM (active)
[9]
  AC50: 7.38 µM (active)
[10]
  AC50: 0.298 µM (active)
[11]
  AC50: 2.47 µM (active)
[12]
  AC50: 6.12 µM (active)
[13]
  AC50: 1.37 µM (active)
[14]
  AC50: 26 µM (active)
[15]
  AC50: 6.6 µM (active)
[16]
  AC50: 11.3 µM (active)
[17]
  AC50: 3.44 µM (active)

## O=C(Nc1ccc(F)cc1)c1sc(-c2ccccc2)nc1C(F)(F)F
[18]
  IC50: > 30 µM (not active)

## CCOc1ccccc1NC(=O)c1cccc(NC(=O)c2cccc(OC)c2)c1
[19]
  IC50: 2.33 µM (active)
[20]
  IC50: 0.005 µM (active)

## CC(C)c1ccc(C(c2c(O)oc3ccccc3c2=O)c2c(O)oc3ccccc3c2=O)cc1
[21]
  IC50: 0.975 µM (active)
[22]
  EC50: > 53 µM (inactive)
[23]
  IC50: 5.18 µM (active)
[24]
  AC50: 6.05 µM (active)
[25]
  IC50: 3.45 µM (active)

## Cc1cc2ncn(CCOc3ccc4c(c3)CCC4)c2cc1C
[26]
  AC50: 33 µM (active)
[27]
  AC50: 24.1 µM (active)
[28]
  AC50: > 52 µM (inactive)

## CC(C)NC(=O)Nc1ccc2c(c1)CC(=O)N([C@H](C)CO)C[C@H](C)[C@H](CN(C)S(=O)(=O)c1ccc(Cl)cc1)O2
[29]
  AC50: 37.9 µM (active)

## O=C1C=C(Nc2cccc(C(F)(F)F)c2)C(=O)c2ccccc21
[30]
  AC50: > 70 µM (inactive)
[31]
  AC50: 0.463 µM (active)
[32]
  AC50: > 70 µM (inactive)

## CCOC(=O)c1sc(=S)n(-c2ccccc2)c1N(C(C)=O)C(C)=O
[33]
  EC50: 0.29 µM (not active)
[34]
  IC50: 8.98 µM (active)
[35]
  IC50: 5.01 µM (active)
